In patent EP0335369A2, “New anthracycline derivatives and processes for the preparation of the same” (priority 1988, dated 1989):

What was measured:
[1] = system: Leukemia L-1210 cells; test: Test 1: antitumor activity against leukemia induced in CDF1 mice by Leukemia L-1210 cells (life-span increase); type: in vivo; details: intraperitoneally once per day for 9 consecutive days, observation 60 days
Experimental: Antitumor activities against leukemia in CDF, mice as induced by mouse leukemia, Leukemia L-1210 cells
After an elapsed time of 24 hours, a compounds of the formula (I) of this invention to be tested was administered intraperitoneally for 9 consecutive days once per day. Observation was made for 60 days, where survival days of each mouse tested were recorded. In comparison with the control test wherein mice were treated with the administration of physiological saline alone, the increase (%) in the life-span of the treated mice was calculated as T/C %, where T is the mean survival days of the treated animals and C is the mean survival days of the untreated control animals. For the comparison, daunomycin and adriamycin were also tested in the same manner.

[2] = system: Leukemia L-1210 cells; test: Test 3: antitumor activity against leukemia induced in CDF1 mice by Leukemia L-1210 cells (procedure of Test 1 repeated); type: in vivo; details: for % Increase in life-span (T/C, %): intraperitoneally once per day for 9 consecutive days, observation 60 days
Experimental: Antitumor activities against leukemia in CDF1 mice as induced by mouse leukemia, Leukemia L-1210 cells
To evaluate the antitumor effects of the compounds of the formula (I') according to the sixth aspect of this invention against experimental tumors in animals, the procedure of Test 1 given hereinbefore is repeated. Thus, CDF1 mice were intraperitoneally transplanted with cells of Leukemia L-1210 (at a dose of 1 x 10^5 cells/mouse). After an elapsed time of 24 hours from the tumor transplantation, a test compound of the formula (I') of the sixth aspect invention to be evaluated was administered intraperitoneally for 9 consecutive days once per day. Observation was made for 60 day, where survival days of each mouse tested were recorded. In comparison with the control test wherein mice were treated with the administration of physiological saline alone, the increase (%) in the life-span of the treated mice was calculated as T/C %, where T is the mean survival days of the treated animals and C is the mean survival days of the untreated control animals. For the comparison, daunomycin and adriamycin were also tested in the same manner.

Structure (SMILES)	% Increase in life-span (T/C, %) ([1]; Dose 0.15 mg/kg/day) [%]	% Increase in life-span (T/C, %) ([1]; Dose 0.3 mg/kg/day) [%]	% Increase in life-span (T/C, %) ([1]; Dose 0.6 mg/kg/day) [%]	% Increase in life-span (T/C, %) ([1]; Dose 1.25 mg/kg/day) [%]	% Increase in life-span (T/C, %) ([1]; Dose 2.5 mg/kg/day) [%]	% Increase in life-span (T/C, %) ([1]; Dose 5 mg/kg/day) [%]	% Increase in life-span (T/C, %) ([2]; Dose 0.15 mg/kg/day) [%]	% Increase in life-span (T/C, %) ([2]; Dose 0.3 mg/kg/day) [%]	% Increase in life-span (T/C, %) ([2]; Dose 0.6 mg/kg/day) [%]	% Increase in life-span (T/C, %) ([2]; Dose 1.25 mg/kg/day) [%]	% Increase in life-span (T/C, %) ([2]; Dose 2.5 mg/kg/day) [%]	% Increase in life-span (T/C, %) ([2]; Dose 5 mg/kg/day) [%]	complete cure of the leukemia in the mice ([2]; intraperitoneally, 0.15 mg/kg/day)
COc1cccc2c1C(=O)c1c(O)c3c(c(O)c1C2=O)C[C@@](O)(C(=O)CO)C[C@@H]3O[C@@H]1O[C@@H](C)[C@@H](O)[C@@H](O)[C@H]1F [7-0-(2,6-Dideoxy-2-fluoro-α-L-talopyranosyl) adriamycinone, reference compound]	127	182	185	275	>350	>750	127	182	185	275	>350	>750	–
COc1cccc2c1C(=O)c1c(O)c3c(c(O)c1C2=O)C[C@@](O)(C(C)=O)C[C@@H]3O[C@@H]1O[C@@H](C)[C@H](O)[C@@H](O)[C@H]1F [Example 1, 7-0-(2,6-dideoxy-2-fluoro-a-L-mannopyranosyl)daunomycinone]	109	123	189	>309	280	160	–	–	–	–	–	–	–
CC(=O)[C@]1(O)Cc2c(O)c3c(c(O)c2[C@@H](O[C@@H]2O[C@@H](C)[C@H](O)[C@@H](O)[C@H]2F)C1)C(=O)c1ccccc1C3=O [Example 2, 4-demethoxy-7-O-(2,6-dideoxy-2-fluoro-α-L-mannopyranosyl)daunomycinone]	113	163	309	> 686	134	73	–	–	–	–	–	–	–
COc1cccc2c1C(=O)c1c(O)c3c(c(O)c1C2=O)C[C@@](O)(C(=O)CO)C[C@@H]3O[C@@H]1O[C@@H](C)[C@H](O)[C@@H](O)[C@H]1F [Example 3, 7-O-(2,6-dideoxy-2-fluoro-a-L-mannopyranosyl)adriamycinone]	157	>440	>363	>426	231	211	–	–	–	–	–	–	–
C[C@@H]1O[C@@H](O[C@H]2C[C@](O)(C(=O)CO)Cc3c(O)c4c(c(O)c32)C(=O)c2ccccc2C4=O)[C@H](F)[C@H](O)[C@H]1O [Example 4, 7-O-(2,6-dideoxy-2-fluoro-a-L-mannopyranosyl)-4-demethoxyadriamycinone]	>534	>686	>686	141	53	22	–	–	–	–	–	–	–
CC(=O)[C@]1(O)Cc2c(O)c3c(c(O)c2[C@@H](O[C@@H]2O[C@@H](C)[C@@H](O)[C@@H](O)[C@H]2F)C1)C(=O)c1ccccc1C3=O [Example 12, 4-demethoxy-7-O-(2,6-dideoxy-2-fluoro-α-L-talopyranosyl)daunomycinone]	–	–	–	–	–	–	106	138	202	> 436	101	80	–
C[C@@H]1O[C@@H](O[C@H]2C[C@](O)(C(=O)CO)Cc3c(O)c4c(c(O)c32)C(=O)c2ccccc2C4=O)[C@H](F)[C@H](O)[C@@H]1O [Example 13, 4-demethoxy-7-O-(2,6-dideoxy-2-fluoro-a-L-talopyranosyl)adriamycinone]	–	–	–	–	–	–	–	>348	>427	96	80	77	three mice were completely cured among the treated four mice
